According to paper PMC10724293, “New ruthenium-xanthoxylin complex eliminates colorectal cancer stem cells by targeting the heat shock protein 90 chaperone” (Cell Death & Disease, 2023):

How the values were obtained:
BAD KO SV40 MEF = assay: Alamar blue survival curves and cell death; format: cell-based, mouse; settings: BAD KO SV40 MEF vs WT SV40 MEF; 10 μM, 48 h
Protocol: The Alamar blue assay was used to determine cell viability as previously described. Cells were seeded into 96-well plates at a density of 7 × 10^3 cells per well for adherent cells or 3 × 10^4 cells per well for suspended cells. The drug was added to each well after 24 h of incubation for adherent cells or immediately for suspended cells and incubated for an additional 72 h. […] Each well received 100 µM resazurin (Sigma-Aldrich Co. St. Louis, MO, United States) four (for cell lines) or 24 (for primary culture) h before the end of the incubation. A SpectraMax 190 Microplate Reader (Molecular Devices, Sunnyvale, CA, USA) was used to measure absorbance at 570 and 600 nm.
For apoptosis detection or functional assays, cell viability was quantified using annexin V-FITC/PI (FITC Annexin V Apoptosis Detection Kit I, BD Biosciences, San Jose, CA, USA) or YO-PRO-1/PI (Sigma-Aldrich Co.). The following inhibitors were used: chloroquine (autophagy inhibitor, Ipca Laboratories, Mumbai, MH, India); 3-methyladenine (autophagy inhibitor, Sigma-Aldrich Co.); and lithium chloride (Wnt activator, Sigma-Aldrich Co.).

HCT116 cells = assay: Cell cycle distribution and internucleosomal DNA fragmentation by flow cytometry; format: cell-based, human
Protocol: For quantification of internucleosomal DNA fragmentation and cell cycle distribution, the cells were stained with PI using a solution containing 0.1% Triton X-100, 2 µg/ml PI, 0.1% sodium citrate, and 100 µg/ml RNAse (all from Sigma-Aldrich) and incubated in the dark for 15 min at room temperature. Finally, cell fluorescence was measured using flow cytometry.
For all flow cytometry analyses, cell fluorescence was measured with a BD LSRFortessa cytometer and analyzed by BD FACSDiva Software (BD Biosciences) and FlowJo Software 10 (FlowJo LLC; Ashland, OR, USA). At least 10,000 events were evaluated per sample for intracellular staining, and at least 30,000 events were acquired per sample for cell surface protein staining. FSC-A versus FCS-H and SCC-A versus SCC-H were used to remove the doublets. The analysis excluded cellular debris.

With cis-[Ru(phen)2(xant)](PF6) [RXC] the “role of the proapoptotic protein BAD in induced cell death” value (BAD KO SV40 MEF) was “BAD-independent cell death”, the “DNA fragmentation (sub-G0/G1)” value (HCT116 cells; 2.5 μM, 48 h, control […]) was 7.1% and the “DNA fragmentation (sub-G0/G1)” value (HCT116 cells; 2.5 μM, 72 h, control 2.0%) was 18.8%. The “DNA fragmentation (sub-G0/G1)” value (HCT116 cells; 5 μM, 48 h, control […]) was 9.3%, the “DNA fragmentation (sub-G0/G1)” value (HCT116 cells; 5 μM, 72 h, control 2.0%) was 22.4% and the cell cycle effect (HCT116 cells; 10 μM, 24 h) was “cell cycle arrest in S-phase”. For the same substance, the “DNA fragmentation (sub-G0/G1)” value (HCT116 cells; 10 μM, 48 h, control […]) was 9.6% and the “DNA fragmentation (sub-G0/G1)” value (HCT116 cells; 10 μM, 72 h, control 2.0%) was 34.3%.
